Experimental data published in patent US7700584B2 (Hangzhou Minsheng Pharmaceuticals Co., Ltd., priority 2004, dated 2010).

Tests used:
Assay type in all cases: cell-based
Settings in all cases: 50 μg/ml
[1] = system: U-937 human histocytic lymphoma; assay: In vitro inhibition rate to tumor cells (MTT), U-937
Description: (§1) (1) Single cell suspension was seeded into 96-well plates (×3) (the cells was diluted in the PRMI-1640 minimum medium to 3×10^4 cells/ml, […] diluted cells/well). […] The experiments were performed in quadruplicate.
(§2) (2) The medium was removed. Solutions of the anti-tumor agents (15 compounds) were prepared in a freshly prepared medium at the concentrations indicated in the following Table. […] of the solution was added into each well. Incubation was continued for 48 hours.
(§3) (3) […] of 2 mg/ml MTT was added into each well, and incubated for 4 hours.
(§4) (4) The medium was removed from the well. The microplates were swiftly turned down to throw-off the medium. […] DMSO was added into each well, and vortexed at room temperature for 10 minutes.
(§5) (5) OD value (λ=570 nm) was measured with an Enzyme-Linked Detector.
(§6) (6) The inhibition rates (IR) of cell growth were respectively calculated based on the following equation: IR(%)=[1−(average OD of the experimental group/average OD of the control group)]×100%

[2] = system: A-549 human lung adenocarcinoma; assay: In vitro inhibition rate to tumor cells (MTT), A-549
Description: as §1, §2, §3, §4, §5, §6

[3] = system: Bel-7402 human hepatic carcinoma; assay: In vitro inhibition rate to tumor cells (MTT), Bel-7402
Description: as §1, §2, §3, §4, §5, §6

[4] = system: MCF-7 human mammary adenocarcinoma; assay: In vitro inhibition rate to tumor cells (MTT), MCF-7
Description: as §1, §2, §3, §4, §5, §6

[5] = system: SMMC-7721 human hepatic carcinoma; assay: In vitro inhibition rate to tumor cells (MTT), SMMC-7721
Description: as §1, §2, §3, §4, §5, §6

[6] = system: HL-60 human promyelocytic leukemia; assay: In vitro inhibition rate to tumor cells (MTT), HL-60
Description: as §1, §2, §3, §4, §5, §6

[7] = system: Hela human cervical carcinoma; assay: In vitro inhibition rate to tumor cells (MTT), Hela
Description: as §1, §2, §3, §4, §5, §6

[8] = system: LLC mouse Lewis lung carcinoma; assay: In vitro inhibition rate to tumor cells (MTT), LLC
Description: as §1, §2, §3, §4, §5, §6

| Structure (SMILES) | inhibition rate, Results (%) U-937 ([1]; Table 1) [%] | inhibition rate, Results (%) U-937 ([1]; Table 2 (repeated screening)) [%] | inhibition rate, Results (%) A-549 ([2]; Table 1) [%] | inhibition rate, Results (%) A-549 ([2]; Table 2 (repeated screening)) [%] | inhibition rate, Results (%) Bel-7402 ([3]; Table 1) [%] | inhibition rate, Results (%) Bel-7402 ([3]; Table 2 (repeated screening)) [%] | inhibition rate, Results (%) MCF-7 ([4]; Table 1) [%] | inhibition rate, Results (%) MCF-7 ([4]; Table 2 (repeated screening)) [%] | inhibition rate, Results (%) SMMC-7721 ([5]; Table 1) [%] | inhibition rate, Results (%) SMMC-7721 ([5]; Table 2 (repeated screening)) [%] | inhibition rate, Results (%) HL-60 ([6]; Table 1) [%] | inhibition rate, Results (%) HL-60 ([6]; Table 2 (repeated screening)) [%] | inhibition rate, Results (%) Hela ([7]; Table 1) [%] | inhibition rate, Results (%) Hela ([7]; Table 2 (repeated screening)) [%] | inhibition rate, Results (%) LLC ([8]; Table 1) [%] | inhibition rate, Results (%) LLC ([8]; Table 2 (repeated screening)) [%] |
| --- | --- | --- | --- | --- | --- | --- | --- | --- | --- | --- | --- | --- | --- | --- | --- | --- |
| C=C1CC2(OC(C)=O)OC3(CC2C(C)C)C(C)CCC13 (centres unmarked) [Compound 1, Curcumol acetate] | 45.45 | 34.26 | −9.16 | −6.32 | 32.12 | 25.32 | 45.6 | 41.02 | 23.10 | 28.23 | 23.12 | 12.03 | 51.23 | 55.98 | 1.30 | 1.30 |
| CC(C)C1CC23OC1(O)CC(=CO)C2CCC3C (centres unmarked) [Compound 18, Curcumol monohydroxy compound] | 70.30 | 69.23 | −2.24 | −0.32 | 13.58 | 11.23 | 57.89 | 54.32 | 13.39 | 0.69 | 4.26 | 7.32 | 60.32 | 65.03 | 4.18 | 0.22 |
| C=CC(=O)OC12CC(=C)C3CCC(C)C3(CC1C(C)C)O2 (centres unmarked) [Compound 22, Curcumol acrylate] | 60.32 | 50.23 | 19.23 | 12.36 | 12.80 | 0.23 | 88.32 | 85.02 | 44.39 | 40.32 | 21.01 | 21.03 | 63.20 | 61.88 | −6.01 | −6.41 |
| COC12CC(=CBr)C3CCC(C)C3(CC1C(C)C)O2 (centres unmarked) [Compound 26, Curcumol methyl ether bromide] | 55.32 | 54.23 | −3.24 | −3.12 | 3.45 | −3.45 | 43.21 | 41.21 | 0.97 | −0.97 | −0.23 | −0.23 | 51.00 | 56.55 | 11.77 | −11.77 |
| CCCCNC=C1CC2(OC)OC3(CC2C(C)C)C(C)CCC13 (centres unmarked) [Compound 27, Curcumol methyl ether n-butyl amine] | 52.98 | 50.98 | 15.01 | 5.23 | 4.65 | 2.31 | 23.78 | 14.36 | 25.94 | 20.36 | 3.19 | 5.969 | 62.31 | 60.21 | −10.89 | −10.00 |
